According to patent publication US20070092469A1, “Topically applied Glucosamine Sulfate and all its related, precursor, and derivative compounds significantly increases the skin's natural produciton of hyaluronic acid for the rejuvenation of healthier younger-looking skin; while PhosphatidylCholine is required to replace its deficiency caused by …” (priority 2005, published 2007):
Where two headings read alike, the source gives them in different places.

Experiments:
[1] = topical; cited from earlier work
[2] = oral dose of Glucosamine Sulfate, humans; cited from earlier work
skin's Hyaluronic Acid = assay: Live clinical human experiments, one side of face, neck and hands treated, other side base (placebo) lotion; format: in vivo; conditions: 5% concentration, topical, versus placebo lotion on other side
Excerpt: In examining the prior art we found our patent to be unique: • 1. U.S. Pat. No. 5,391,373 (Mausner) is distinguished by its failure to use an adequate amount of Glucosamine in order to achieve the substrate concentration for the enzyme Hyaluronate Synthase to produce a sufficient quantity and concentration of Hyaluronic Acid necessary to achieve any meaningful change in the texture of the skin, including its ability to hold onto sufficient water to increase internal hydration. Their patent claims: “1. (d) about 0.001% to 0.1% of a carbohydrate-based complex comprising dextran, glycine, and Glucosamine;”. […] Their minimum range amount claimed is calculated as: 0.001% (0.00001) times 5% (0.05%) equals 0.0000005, which is 0.00005% and equals 5 one-hundred-thousandths of a gram per 100 milliliters, and is totally inconsequential for having any positive effect. […]

[3] = oral, dog; cited from earlier work
[4] = simple diffusion, not active transport; cited from earlier work
solar lentinges = conditions: cited from earlier work
[5] = topical; cited from earlier work; remark: listed apart in the source

**Q.** What does the source list for `N[C@H]1C(O)O[C@H](CO)[C@@H](O)[C@@H]1O.O=S(=O)(O)O` (stereo partly drawn) [Glucosamine Sulfate]?
**A.** absorption through the skin [1]: much better absorbed into the body via the skin; absorbed [2]: about 90%; production of the skin's Hyaluronic Acid (skin's Hyaluronic Acid): markedly enhancing

**Q.** With `N[C@@H]1[C@@H](O)[C@H](O)[C@@H](CO)O[C@@H]1O` [Glucosamine, 2-amino-2-deoxy-alpha-D-glucose] as the molecule, how does the absorbed [3] read?
**A.** Its absorbed is 87%.

**Q.** Which results are given for `CC(=O)N[C@H]1C(O)O[C@H](CO)[C@@H](O)[C@@H]1O` (stereo partly drawn) [N-acetylglucosamine, N-acetyl-D-Glucosamine]?
**A.** absorption through the skin [1]: very poorly absorbed through the skin; oral absorption [4]: not well absorbed orally

**Q.** With Ascorbyl Glucosamine as the molecule, how does the “effect on skin ("liver spot") pigmentation” value (solar lentinges) read?
**A.** Its value is “no positive effects”.

**Q.** With “hyaluronic acid [250,000 Dalton sized hyaluronic acid]” as the molecule, how does the “absorption into the skin” value [5] read?
**A.** The value was “very low percentage”.

**Q.** With “hyaluronic acid [600,000 Dalton molecular weight hyaluronic acid]” as the molecule, how does the “absorption into the skin” value [5] read?
**A.** The value was “only a few percent”.
